Measurements as given in PubChem BioAssay AID1963825 (Molecular Pharmacology Branch, DTP, NCI, 2024).

Test: Anticancer human tumor 997537-175-T-J1-PDC patient-derived colon adenocarcinoma cell line growth inhibition [POLQ]
Conditions: 997537-175-T-J1-PDC complex spheroid viability, combination with POLQ inhibitors; for IC50: curve of first compound; for viability, T/C: stronger effect = lower value
Summary of the method: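 PDC + HUVEC + MSC complex spheroids; POLQ inhibitors ± partner drugs; top conc. at/near clinical Cmax, else 10 microM (SN-38 1 microM), half-log dilutions; 37 degrees C, 5% CO2.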
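Note: luminescence signal used as a surrogate for viable cells; spheroids exposed to drugs for seven days before readout.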

SMILES: Cn1ncnc1[C@H]1c2n[nH]c(=O)c3cc(F)cc(c23)N[C@@H]1c1ccc(F)cc1 + Nc1ccc(C#CCN(C(=O)Cc2ncc(C(F)(F)F)cc2C(F)(F)F)c2ccc(F)cc2)nn1
- IC50 (second compound 0.0316 µM): > 100 nM
- IC50 (second compound 0.1 µM): > 100 nM
- IC50 (second compound 0.316 µM): > 100 nM
- IC50 (second compound 1 µM): > 100 nM
- IC50 (second compound 3.16 µM): > 100 nM
- IC50 (second compound 10 µM): > 100 nM
- viability, T/C (second compound 0.0316 µM, first compound 0.000316 µM): 98.8%
- viability, T/C (second compound 0.0316 µM, first compound 0.001 µM): 97.4%
- viability, T/C (second compound 0.0316 µM, first compound 0.00316 µM): 104%
- viability, T/C (second compound 0.0316 µM, first compound 0.01 µM): 94.5%
- viability, T/C (second compound 0.0316 µM, first compound 0.0316 µM): 98.1%
- viability, T/C (second compound 0.0316 µM, first compound 0.1 µM): 103%
- viability, T/C (second compound 0.1 µM, first compound 0.000316 µM): 103%
- viability, T/C (second compound 0.1 µM, first compound 0.001 µM): 114%
- viability, T/C (second compound 0.1 µM, first compound 0.00316 µM): 99.2%
- viability, T/C (second compound 0.1 µM, first compound 0.01 µM): 104%
- viability, T/C (second compound 0.1 µM, first compound 0.0316 µM): 95.7%
- viability, T/C (second compound 0.1 µM, first compound 0.1 µM): 99%
- viability, T/C (second compound 0.316 µM, first compound 0.000316 µM): 100%
- viability, T/C (second compound 0.316 µM, first compound 0.001 µM): 110%
- viability, T/C (second compound 0.316 µM, first compound 0.00316 µM): 95.6%
- viability, T/C (second compound 0.316 µM, first compound 0.01 µM): 106%
- viability, T/C (second compound 0.316 µM, first compound 0.0316 µM): 95.3%
- viability, T/C (second compound 0.316 µM, first compound 0.1 µM): 93.9%
- viability, T/C (second compound 1 µM, first compound 0.000316 µM): 105%
- viability, T/C (second compound 1 µM, first compound 0.001 µM): 90.5%
- viability, T/C (second compound 1 µM, first compound 0.00316 µM): 89.4%
- viability, T/C (second compound 1 µM, first compound 0.01 µM): 99.4%
- viability, T/C (second compound 1 µM, first compound 0.0316 µM): 120%
- viability, T/C (second compound 1 µM, first compound 0.1 µM): 90.5%
- viability, T/C (second compound 3.16 µM, first compound 0.000316 µM): 101%
- viability, T/C (second compound 3.16 µM, first compound 0.001 µM): 103%
- viability, T/C (second compound 3.16 µM, first compound 0.00316 µM): 86.4%
- viability, T/C (second compound 3.16 µM, first compound 0.01 µM): 95.3%
- viability, T/C (second compound 3.16 µM, first compound 0.0316 µM): 104%
- viability, T/C (second compound 3.16 µM, first compound 0.1 µM): 99.2%
- viability, T/C (second compound 10 µM, first compound 0.000316 µM): 95.4%
- viability, T/C (second compound 10 µM, first compound 0.001 µM): 102%
- viability, T/C (second compound 10 µM, first compound 0.00316 µM): 98.6%
- viability, T/C (second compound 10 µM, first compound 0.01 µM): 91.3%
- viability, T/C (second compound 10 µM, first compound 0.0316 µM): 103%
- viability, T/C (second compound 10 µM, first compound 0.1 µM): 106%
